Legend:
[1] = test system: CCI of the sciatic nerve (mechano-allodynia); assay: CCI model of neuropathic pain, mechano-allodynia (von Frey PWT); assay type: in vivo, mice
Experimental: CCI model of neuropathic pain. CCI to the sciatic nerve of the left hind leg in mice was performed under general anaesthesia using the well-characterized Bennett model. Briefly, mice (weighing 25-30 g at the time of surgery) were anesthetized with 3% isoflurane/100% O2 inhalation and maintained on 2% isoflurane/100% O2 for the duration of surgery. The left thigh was shaved, scrubbed with Nolvasan® and a small incision (1-1.5 cm in length) was made in the middle of the lateral aspect of the left thigh to expose the sciatic nerve. The nerve was loosely ligated around the entire diameter of the nerve at three distinct sites (spaced 1 mm apart) using silk sutures (6.0). The surgical site was closed with a single muscle suture and a skin clip. Pilot studies established that under our experimental conditions peak mechano-allodynia develops by day 5-day 7 (D5-D7) following CCI. Test substances or their vehicles were given subcutaneously (s.c.), intraperitoneally (i.p.) or orally by gavage (0.1 ml) at peak mechano-allodynia (D7).
Behavioral testing. […] The plantar aspect of hindpaws were probed three times with calibrated von Frey filaments (Stoelting, mice: 0.07-2.00 grams; rats: 0.407-26 grams) according to the “up-and-down” method. […] Briefly, each rat was placed in a Plexiglas chamber (28×40×35-cm, wire mesh floor) and after its acclimation, a servo-controlled mechanical stimulus was applied to the plantar surface that exerted a progressively increasing punctate pressure up to 50 grams within 10 seconds. Mechanical threshold was assessed three times at each time point to yield a mean value, reported as PWT (grams). […] Mechano-hyperalgesia was assessed in rats by the Randall and Sellitto paw pressure test using an analgesiometer (Ugo Basile). The nociceptive threshold was defined as the force (grams) at which the rat withdrew its paw (cut off set at 250 grams).
Determining ED50 values. Dose response data were curve-fitted using the least sum of square method by a normalized 4-parameter, variable slope non-linear analysis of the % Reversal of Mechano-allodynia in CCI and % Prevention of Mechano-allodynia or Mechano-hyperalgesia in CIPN using GraphPad Prism (Release 5.03, GraphPad Software, Inc.) from which the ED50 was determined and reported with the 95% confidence interval (95% CI). In the CCI model, the % Reversal of Mechano-allodynia=(PWT1h−PWTD7)/(PWTD0−PWTD7)×100, where PWTD0=Paw Withdrawal Threshold (g) at D0, PWT1h=Paw Withdrawal Threshold (g) at 1 hour after the administration of IB-MECA, gabapentin, amitriptyline, or combinations of IB-MECA with gabapentin or amitriptyline, and PWTD7=Paw Withdrawal Threshold (grams) at D7 prior to drug administration.
Statistical Analysis. Data are expressed as mean±SD for n animals. Behavioral data were analyzed by two-way repeated measures ANOVA with Bonferroni comparisons (full time course studies) or one-way ANOVA Dunnett's comparisons (1 hour behavioral data). The dose response curves were compared to a globally fitted curve using the extra sum-of-squares F-test comparisons to determine whether the data represented distinct curves between treatments. Significant differences were defined at a P<0.05. All statistical analysis was performed using GraphPad Prism (v5.03, GraphPad Software, Inc.).

[2] = test system: oxaliplatin-induced neuropathic pain; assay: Oxaliplatin-induced neuropathic pain (mechano-allodynia, mechano-hyperalgesia); assay type: in vivo, rats
[3] = test system: acute nociception (tail flick latency); assay: Tail flick assay for acute nociception; assay type: in vivo, mice; settings: IB-MECA, MRS1898 0.5 μmol/kg i.p. at 30, 60, 120 minutes; morphine 35 μmol/kg s.c. positive control
Experimental: (§1) Tail flick and hot plate assay in mice for acute nociception. The tail flick test, which measures latency(s) of tail withdrawal from a noxious radiant heat source (Ugo Basile; model number 37360) was used to measure thermal nociceptive sensitivity in mice with baseline latencies of 3-5 seconds and a cut-off time of 15 seconds to prevent tissue injury. Tail flick latencies were taken before and at 30, 60 and 120 minutes after i.p. injection of IB-MECA, MRS1898 (0.5 μmol/kg) or its vehicle (0.1% DMSO in saline). For the hot plate test, nociceptive thresholds were determined as previously reported by our group by measuring latencies (in seconds) of mice placed in a transparent glass cylinder on a hot plate maintained at 52° C.. Responses indicative of nociception included intermittent lifting and/or licking of the hindpaws or escape behavior. Hot plate latencies were taken in mice from all groups before and after drug administration. A cut-off latency of 15 seconds was employed to prevent tissue damage.

[4] = test system: acute nociception (hot plate latency); assay: Hot plate assay for acute nociception; assay type: in vivo, mice; settings: 0.5 μmol/kg
Experimental: as §1

[5] = test system: SKBR3 breast cancer cells; assay: MTT cell survival assay, SKBR3; assay type: cell-based, human
Experimental: Cells were cultured and assayed in DMEM (SKBR3; human breast cancer cells), L15 (SW480; human colon cancer cells) or RPMI […] (RPMI 8226; human multiple myeloma cells) supplemented with heat-denatured 10% FBS and penicillin/streptomycin at 37° C., 0% (SW480) or 5% CO2 (SKBR3 and RPMI 8226), 95% humidity. The antitumor activities of these agents were measured in cells (6.25×10^4 cells/well) cultured overnight in 24-well plates (SKBR3 and SW480; BD Biosciences) or 12 mm×7.5 mm culture tubes (RPMI 8226; BD Biosciences) in complete media. […] Two naïve control wells were included as a control for 100% survival. Cell survival was determined using a MTT (3-(4,5-dimethylthiazol-2-yl)-2,5-diphenyltetrazolium bromide) assay adapted from a previously described assay. Cells were incubated with MTT (500 μg/ml) for 75 minutes at 37° C., 0% or 5% CO2, 95% humidity, removing the media and dissolving the tetrazolium crystals in isopropanol. […] The antitumor effects of IB-MECA alone were determined as % Survivability=(A560-570 nm of chemotherapeutic vehicle+IB-MECA)/(mean A560-570 nm of the naïve control wells)×100. The LD50 of each chemotherapeutic agent+IB-MECA or its vehicle was calculated using three-parameter non-linear analysis using % Survivability=(A560-570 nm of chemotherapeutic+IB-MECA or its vehicle)/(mean A560-570 nm chemotherapeutic vehicle+vehicle of IB-MECA)×100. The top and bottom plateaus were constrained using GraphPad Prism v5.03 (GraphPad Software, Inc.).

Structure (SMILES): CNC(=O)[C@H]1O[C@@H](n2cnc3c(NCc4cccc(I)c4)ncnc32)[C@H](O)[C@@H]1O [IB-MECA, N^6-(3-iodobenzyl)-adenosine-5′-N-methyluronamide]
- anti-allodynic effect of low dose alone ([1]; 0.2 μmol/kg): devoid of anti-allodynic effects
- reversal of mechano-allodynia on consecutive daily injections ([1]; 0.5 μmol/kg i.p. daily D8-D15, compared to D7): reversed mechano-allodynia to the same degree as observed on D7
- effect on PWT in contralateral paws ([1]; D7 after CCI, drug alone): lacked effect
- time of maximal reversal of mechano-allodynia ([1]; after single administration on D7): ≤ 1 h
- onset of reversal of allodynia ([1]; i.p. on D7): 30 min
- Emax, reversal of mechano-allodynia ([1]; mice, D7 after CCI, drug alone): 100%
- ED50, reversal of mechano-allodynia ([1]; mice, D7 after CCI, ipsilateral paw, at time of maximal reversal, drug alone (IB-MECA i.p., morphine s.c., gabapentin i.p., amitriptyline oral)): 0.4 µmol/kg
- reversal of mechano-allodynia in ipsilateral paws ([1]; single dose D7, IB-MECA 0.2-2, CI-IB-MECA 0.6, MRS1898 0.5 μmol/kg i.p., morphine 0.11-35 s.c., gabapentin 18-584 i.p., amitriptyline 3-191 μmol/kg oral): reversed allodynia
- effect on development of oxaliplatin-induced neuropathic pain ([2]; 0.02-0.2 μmol/kg/d D0-D17): attenuated dose-dependently
- neuropathic pain upon drug termination ([2]; oxaliplatin model, through D25): did not emerge upon drug termination
- D17 ED50, prevention of oxaliplatin-induced mechano-allodynia ([2]; rats, daily D0-D17): 0.05 µmol/kg/day
- D17 ED50, prevention of oxaliplatin-induced mechano-hyperalgesia ([2]; rats, daily D0-D17): 0.06 µmol/kg/day
- effect on tail flick latency [3]: lacked effect
- effect on the hot plate [4]: had no effect
- effect on the antitumor effects of paclitaxel, oxaliplatin or bortezomib ([5]; IB-MECA 10 nM, human breast, colon and multiple myeloma cancer cells): did not diminish
- decrease in cell survival when used alone ([5]; IB-MECA 10 nM, stated for the cell lines tested (SKBR3, SW480, RPMI 8226)): < 20%
- effect of higher doses on the cell lines ([5]; doses above 10 nM, all three cell lines): direct antitumor effects

Reference: US9132131B2, “Use of adenosine A3 receptor agonists for treatment of neuropathic pain” (Saint Louis University, priority 2011, dated 2015)
